The values below come from patent publication US20070249537A1, “ABSORPTION ENHANCING AGENTS” (Supernus Pharmaceuticals, Inc., priority 2003, published 2007).

Converted amounts (≈) assume the structure as drawn. Where two headings read alike, the source gives them in different places. Marks after values point to notes of the source that are not given here.

Data set [1] concerns Caco-2 cell line. The class given is in vitro ADME, human. The method, then: (§1) Permeability coefficients are determined as previously reported by Yazdania et.el (Yazdanian M, Glynn, S I, Wright J L, et al. 1998. Correlating partitioning and Caco-2 permeability of structurally diverse small molecular weight compounds. Pharm Res 15:1490-1494). Briefly, drug solutions were prepared in HBSS at a known final concentration. For AP to BL experiments, the solution was placed on the apical side of the cells and samples were taken from basolateral side. In contrast, for BL to AP experiments, the solution was placed on the basolateral side of the cells and samples were taken from apical side. The samples are analyzed by an HPLC. Transport rates (J) are determined by plotting cumulative amounts of drug permeated as a function of time. Apparent permeability coefficients Pcaco-2, are determined according to the equation Pcaco-2=J/ACi where Ci is the initial concentration of the solution in donor chamber and A is the surface area of the filter.
(§2) The original cell line integrity and the effect of excipients on the integrity of cell line were also tested by measuring the flux of ^14C-mannitol.

In data set [2] the test system is Caco-2 cell line. The format is in vitro ADME, human. The settings on record: for Permeability Coefficient, Sampatrilat / Effect on sampatrilat permeation across the Caco-2 cell line: Caco-2.
Text: (§3) The Caco-2 cell line is a well-recognized in vitro screening model, which both structurally and functionally represents the small intestinal epithelium. Caco-2 cells are derived from human colon carcinoma cells and differentiate in culture to form intestinal epithelia similar to that found in the small intestine. More specifically, Caco-2 cells form a brush border with normal enzymes, form tight junctions between cells, and acquire the barrier properties of an enterocyte sheet.
as §1, §2

The next data set deals with Caco-2 cells. Nature of the data set: Lactate dehydrogenase (LDH) assay after the permeation studies. The format is cell-based, human. The method, then: In addition, a lactate dehydrogenase (LDH) assay was conducted after the permeation studies to evaluate the cytotoxicity of the absorption enhancers as well as to discover any violation of the integrity of the Caco-2 cells. LDH is a cytosolic enzyme that is not normally secreted outside the cell. However, it leaks into the culture medium upon damage to the cell membranes. In vitro release of LDH from cells provides an accurate measure of cell membrane integrity and cell viability. […] LDH leakage into the apical compartment of the Caco-2 cell system was used to measure the effect, if any, of a given absorption enhancer on the viability of the Caco-2 cells.

The subject of data set [3] is Caco-2 cell line. The format is in vitro ADME, human.
Text: as §3, §1
The source holds these as a separate data set.

Another data set can be described thus: in vitro. The conditions noted are these: human, Caco-2.
For data set [4], the system named is Caco-2 cell line. The conditions noted are these: human.
Procedure: (§4) The effectiveness of N-methylated glycines as permeability enhancers was evaluated using mannitol as a control.
For data set [5] the following is noted: in vivo; tablet dosage form; earlier studies; cited from earlier work.
A short description of data set [6]: Aqueous solubility of sampatrilat. The format is physicochemical.
Where [7] appears, read: sampatrilat study, excipient 1% w/v (none for drug alone).
The mark [8] stands for this setting: hydrochlorothiazide study 1, excipient 1% (none for drug alone).
Setting [9] is: hydrochlorothiazide study 5, excipient 5% w/v (none for drug alone).
Setting [10] is: mannitol study, first series, enhancer 1% (none for mannitol control).
[11] abbreviates: hydrochlorothiazide study 2, excipient 1% (none for drug alone).
Setting [12] is: mannitol study, first series, enhancer 0.5%.
The mark [13] stands for this setting: hydrochlorothiazide study 3, excipient 1% (none for drug alone).

Procedure for in vitro: as §4

As for `NCCCCCC(=O)O` [Amino caproic acid], the “Permeability coefficient (mannitol)” value in the data set with Caco-2 cell line [1] was 1.07 10E−6 cm/s. Besides, the “Permeability Coefficient, Sampatrilat” value in the data set with Caco-2 cell line [2] was 0.48 10E−6 cm/s. Moreover, the Toxicity result in the data set on Caco-2 cells (setting [7]) is recorded as “Yes”.
Consider `NC(=O)NCCC[C@H](N)C(=O)O` [Citrulline], for which, in the data set with Caco-2 cell line [1], the “Permeability coefficient (mannitol)” value is reported as 0.22 10E−6 cm/s. In the data set with Caco-2 cell line [2], the “Permeability Coefficient, Sampatrilat” value is on record as 0.34 10E−6 cm/s. In the data set on Caco-2 cells (setting [7]), the Toxicity entry is listed as “Yes”.
Consider `O=C1CCCCCCCCCCCCCCO1` [Cyclopentadecanolide, cyclopentadecanolide], for which, in the data set with Caco-2 cell line [3], the “Permeability enhancement of hydrochlorothiazide” value (“Permeability enhancement” below) was “low or no potency”. Moreover, the Toxicity entry in the data set with Caco-2 cells (setting [8]) and in the data set on Caco-2 cells (setting [9]) was “No” in each case.
For the compound `CC1(C)[C@@H](O)CC[C@]2(C)[C@H]3C(=O)C=C4[C@@H]5C[C@@](C)(C(=O)O)CC[C@]5(C)CC[C@@]4(C)[C@]3(C)CC[C@@H]12` [Glycyrrehetinic acid, 18β-glycyrrhetinic acid, reference compound], the “Permeability enhancement” value in the data set with Caco-2 cell line [3] was “low or no potency”. For the same compound, in the data set with Caco-2 cells (setting [8]), the Toxicity entry was “No”.
Turning to `O=c1cc(CO)occ1O` [Kojic acid], in the data set on Caco-2 cell line [1], the “Permeability coefficient (mannitol)” value is recorded as 1.63 10E−6 cm/s. Further, the “Permeability Coefficient, Sampatrilat” value in the data set on Caco-2 cell line [2] is reported as 0.49 10E−6 cm/s. Besides, the Toxicity entry with Caco-2 cells (setting [7]) was “Yes”.
The compound `OC[C@@H](O)[C@@H](O)[C@H](O)[C@H](O)CO` [Mannitol, reference compound] displayed an apparent permeability coefficient (Papp) at 6.8 uM in the data set “in vitro” of 1.24 ×10⁻⁶ cm/s. Moreover, the Enhancement ratio is recorded as 1.0 in the data set with Caco-2 cell line [4] (Caco-2) and 1.0 in the data set on Caco-2 cell line [4] (Caco-2, 1 %). The “Permeability coefficient (mannitol)” value in the data set on Caco-2 cell line [4] (Caco-2, 1 %) is given as 0.93^a ×10^−6 cm/sec. Moreover, the Toxicity result in the data set with Caco-2 cells (setting [10]) is on record as “No”; with Caco-2 cells (mannitol study, second series, 1% enhancer and 1% Tween 80 (none for mannitol control)) it was “No”.
On to `CN(C)CC(=O)O` [N,N-dimethylglycine], for which the Enhancement ratio in the data set with Caco-2 cell line [4] (Caco-2, 0.5 %) is recorded as 9.9; with Caco-2 cell line [4] (Caco-2, 1 %), 15.9. Further, the “Permeability enhancement” value in the data set with Caco-2 cell line [3] is “demonstrated as permeability enhancers”. Further, the “Permeability coefficient (mannitol)” value with Caco-2 cell line [1] is reported as 12.30 10E−6 cm/s. Also, the “Effect on sampatrilat permeation across the Caco-2 cell line” value in the data set on Caco-2 cell line [2] is given as “significantly increase”. Also, the “Permeability Coefficient, Sampatrilat” value in the data set with Caco-2 cell line [2] is listed as 19.90 10E−6 cm/s. Moreover, the “Increase of sampatrilat permeability over the drug alone” value in the data set with Caco-2 cell line [2] (human, Caco-2, 1 % w/v) is on record as 124 fold. Moreover, in the data set on Caco-2 cells, the “Cytotoxicity relative to cells treated with Hank's balanced salt solution alone” value was “not cytotoxic”. Moreover, the Toxicity result in the data set with Caco-2 cells (setting [8]) is “No”; in the data set on Caco-2 cells (setting [11]), “No”; with Caco-2 cells (hydrochlorothiazide study 4, excipient 1% (none for drug alone)), “No”; in the data set with Caco-2 cells (setting [12]), “No”; in the data set with Caco-2 cells (setting [10]), “No”; with Caco-2 cells (setting [7]), “No”.
As for `O=C(/C=C/C=C/c1ccc2c(c1)OCO2)N1CCCCC1` [Piperine, piperine], in the data set on Caco-2 cell line [3], the “Permeability enhancement” value is on record as “low or no potency”. Moreover, the Toxicity result in the data set on Caco-2 cells (setting [11]) was “No”; in the data set with Caco-2 cells (setting [9]), “Yes”.
As to `CS(=O)(=O)N[C@@H](CCCCN)C(=O)NC[C@H](CC1(C(=O)N[C@@H](Cc2ccc(O)cc2)C(=O)O)CCCC1)C(=O)O` [Sampatrilat], in data set [5], the Oral bioavailability is 2-5%. In addition, the solubility in data set [6] was found to be 1800 µg/mL (≈ 3.08 mM).
`O=C(O)CCCCCCCCC(=O)O` [Sebacic acid, sebacic acid]: in the data set on Caco-2 cell line [3], the “Permeability coefficient (hydrochlorothiazide)” value is given as 7.30 ×10^−6, cm/s and the “Permeability enhancement” value is recorded as “demonstrated as permeability enhancers”. In addition, the “Permeability coefficient (mannitol)” value in the data set with Caco-2 cell line [1] is listed as 7.50 10E−6 cm/s. In addition, in the data set on Caco-2 cell line [2], the “Effect on sampatrilat permeation across the Caco-2 cell line” value is given as “significantly increase” and the “Permeability Coefficient, Sampatrilat” value was 2.10 10E−6 cm/s. In the data set with Caco-2 cells, the “Cytotoxicity relative to cells treated with Hank's balanced salt solution alone” value is “not cytotoxic”. Also, the Toxicity entry in the data set on Caco-2 cells (setting [13]) is on record as “No”. The Toxicity entry with Caco-2 cells (setting [7]) is reported as “No”.
For the compound `O=C(O)C1=C[C@@H](O)[C@@H](O)[C@H](O)C1` [Shikimic acid, shikimic acid], the Toxicity result with Caco-2 cells (setting [13]) is listed as “No”; with Caco-2 cells (hydrochlorothiazide study 5, excipient 3% w/v) it was “No”; in the data set with Caco-2 cells (setting [7]), “No”.
For the compound `C[N+](C)(C)CC(=O)O` [betaine, trimethyl glycine], in the data set with Caco-2 cells (setting [10]), the Toxicity entry was “No”.
On to `NCC(=O)O` [glycine], for which the Enhancement ratio in the data set with Caco-2 cell line [4] (Caco-2, 0.5 %) is 0.9; in the data set on Caco-2 cell line [4] (Caco-2, 1 %), 1.0. Moreover, the “Permeability coefficient (mannitol)” value came to 8.5e-07 cm/s in the data set with Caco-2 cell line [4] (Caco-2, 0.5 %) and 9.3e-07 cm/s with Caco-2 cell line [4] (Caco-2, 1 %). Besides, the Toxicity result in the data set on Caco-2 cells (setting [12]) and in the data set with Caco-2 cells (setting [10]) was “No” throughout.
On to `CNCC(=O)O` [sarcosine, methyl glycine], for which the Enhancement ratio stood at 1.8 with Caco-2 cell line [4] (Caco-2, 0.5 %) and 1.0 with Caco-2 cell line [4] (Caco-2, 1 %). Moreover, the “Permeability coefficient (mannitol)” value turned out to be 1.71e-06 cm/s in the data set with Caco-2 cell line [4] (Caco-2, 0.5 %) and 8.9e-07 cm/s in the data set with Caco-2 cell line [4] (Caco-2, 1 %). Further, the Toxicity result with Caco-2 cells (setting [12]) and with Caco-2 cells (setting [10]) was “No” throughout.
With Vitamin E TPGS [Vitamin E TGPS], in the data set on Caco-2 cell line [3], the “Permeability coefficient (hydrochlorothiazide)” value is listed as 0.58 ×10^−6, cm/s and the “Permeability enhancement” value is listed as “low or no potency”. In addition, the Toxicity result in the data set on Caco-2 cells (setting [13]) is “No”.
